Measured values from US4315858A, “Antibacterial amide compounds” (Warner-Lambert Company, priority 1980, dated 1982).
In brackets after ≈: the same amount, converted by molar mass.

What was measured:
Format in all cases: cell-based
Entero. cloacae = assay: Minimal inhibitory concentration against Entero. cloacae; details: Enterobacter cloacae
[1] = tested on: Pseudomonas aeruginosa #28; assay: Minimal inhibitory concentration against Pseudomonas aeruginosa #28
Staph. aureus S18713 = assay: Minimal inhibitory concentration against Staph. aureus S18713; details: Staphylococcus aureus
Serr. marces. = assay: Minimal inhibitory concentration against Serr. marces.
Klebs. pneu. = assay: Minimal inhibitory concentration against Klebs. pneu.

Row | Compound | MIC (Entero. cloacae) [µg/mL] | MIC [1] [µg/mL] | MIC (Staph. aureus S18713) [µg/mL] | MIC (Serr. marces.) [µg/mL] | MIC (Klebs. pneu.) [µg/mL]
1 | CC1(C)S[C@@H]2[C@H](NC(=O)[C@H](NC(=O)c3ccc(-c4ccc(NC(=O)CSCC(F)(F)F)cc4)[nH]c3=O)c3ccc(O)cc3)C(=O)N2[C@H]1C(=O)O [Example 8] | 6.3 (≈ 8.59 µM) | 0.8 (≈ 1.09 µM) | > 50 | 0.4 (≈ 0.545 µM) | 3.1 (≈ 4.22 µM)
2 | CC(=O)Nc1cccc(-c2ccc(C(=O)N[C@@H](C(=O)N[C@@H]3C(=O)N4[C@@H]3SC(C)(C)[C@@H]4C(=O)O)c3ccccc3)c(=O)[nH]2)c1 [Example 15, N-[6-[3-(Acetylamino)phenyl]-1,2-dihydro-2-oxonicotinoyl]ampicillin] | 6.3 (≈ 10.4 µM) | 6.3 (≈ 10.4 µM) | > 200 | 12.5 (≈ 20.7 µM) | 3.1 (≈ 5.14 µM)
3 | CC1(C)S[C@@H]2[C@H](NC(=O)[C@H](NC(=O)c3ccc(-c4ccc(NC(=O)C(F)(F)F)cc4)[nH]c3=O)c3ccccc3)C(=O)N2[C@H]1C(=O)O [Example 3, N-[6-[4(Trifluoroacetylamino)phenyl]-1,2-dihydro-2-oxonicotinoyl]ampicillin] | 3.1 (≈ 4.71 µM) | 6.3 (≈ 9.58 µM) | 200 (≈ 304 µM) | 25 (≈ 38 µM) | 6.3 (≈ 9.58 µM)
4 | CC(=O)Nc1ccc(-c2ccc(C(=O)N[C@@H](C(=O)N[C@@H]3C(=O)N4[C@@H]3SC(C)(C)[C@@H]4C(=O)O)c3ccc(O)cc3)c(=O)[nH]2)cc1 [Example 2, N-[6-[4-(acetylamino)phenyl]-1,2-dihydro-2-oxonicotinoyl]amoxicillin] | 6.3 (≈ 10.2 µM) | 3.1 (≈ 5 µM) | 200 (≈ 323 µM) | 25 (≈ 40.3 µM) | 12.5 (≈ 20.2 µM)
5 | CCNC(=O)Nc1ccc(-c2ccc(C(=O)N[C@@H](C(=O)N[C@@H]3C(=O)N4[C@@H]3SC(C)(C)[C@@H]4C(=O)O)c3ccc(O)cc3)c(=O)[nH]2)cc1 [Example 14, N-[6-[4-(N-Ethylcarbamoylamino)phenyl]-1,2-dihydro-2-oxonicotinoyl]amoxicillin] | 3.1 (≈ 4.78 µM) | 0.8 (≈ 1.23 µM) | 50 (≈ 77.1 µM) | 0.8 (≈ 1.23 µM) | 6.3 (≈ 9.71 µM)
6 | CC1(C)S[C@@H]2[C@H](NC(=O)[C@H](NC(=O)c3ccc(-c4ccc(NC(=O)Cc5nn[nH]n5)cc4)[nH]c3=O)c3ccc(O)cc3)C(=O)N2[C@H]1C(=O)O [Example 6] | 1.6 (≈ 2.33 µM) | 3.1 (≈ 4.51 µM) | > 50 | 1.6 (≈ 2.33 µM) | 12.5 (≈ 18.2 µM)
7 | CC(=O)C(=O)Nc1ccc(-c2ccc(C(=O)N[C@@H](C(=O)N[C@@H]3C(=O)N4[C@@H]3SC(C)(C)[C@@H]4C(=O)O)c3ccc(O)cc3)c(=O)[nH]2)cc1 [Example 7, N-[6-[4-(1,2-Dioxopropylamino)phenyl]-1,2-dihydro-2-oxonicotinoyl]amoxicillin] | 3.1 (≈ 4.79 µM) | 1.6 (≈ 2.47 µM) | 25 (≈ 38.6 µM) | 3.1 (≈ 4.79 µM) | 12.5 (≈ 19.3 µM)

Other lines, results leading:

Row | MIC (Entero. cloacae) [µg/mL] | MIC [1] [µg/mL] | MIC (Staph. aureus S18713) [µg/mL] | MIC (Serr. marces.) [µg/mL] | MIC (Klebs. pneu.) [µg/mL] | Compound
8 | 1.6 (≈ 2.36 µM) | 6.3 (≈ 9.3 µM) | 50 (≈ 73.8 µM) | 200 (≈ 295 µM) | 6.3 (≈ 9.3 µM) | CCOC(=O)C(=O)Nc1ccc(-c2ccc(C(=O)N[C@@H](C(=O)N[C@@H]3C(=O)N4[C@@H]3SC(C)(C)[C@@H]4C(=O)O)c3ccc(O)cc3)c(=O)[nH]2)cc1 [Example 10, N-[6-[4-[(2-Ethoxy-1,2-dioxoethyl)amino]phenyl]-1,2-dihydro-2-oxonicotinoyl]amoxicillin]
9 | 1.6 (≈ 2.48 µM) | 1.6 (≈ 2.48 µM) | 100 (≈ 155 µM) | 200 (≈ 310 µM) | 3.1 (≈ 4.81 µM) | CC1(C)S[C@@H]2[C@H](NC(=O)[C@H](NC(=O)c3ccc(-c4ccc(NC(=O)CC#N)cc4)[nH]c3=O)c3ccc(O)cc3)C(=O)N2[C@H]1C(=O)O [Example 5]
10 | 3.1 (≈ 4.6 µM) | 1.6 (≈ 2.38 µM) | 100 (≈ 148 µM) | 100 (≈ 148 µM) | 3.1 (≈ 4.6 µM) | CC1(C)S[C@@H]2[C@H](NC(=O)[C@H](NC(=O)c3ccc(-c4ccc(NC(=O)C(F)(F)F)cc4)[nH]c3=O)c3ccc(O)cc3)C(=O)N2[C@H]1C(=O)O [Example 4, N-[6-[4-(Trifluoroacetylamino)phenyl]-1,2-dihydro-2-oxonicotinoyl]amoxicillin]
11 | 1.6 (≈ 2.3 µM) | 1.6 (≈ 2.3 µM) | 50 (≈ 71.9 µM) | 50 (≈ 71.9 µM) | 3.1 (≈ 4.46 µM) | CC1(C)S[C@@H]2[C@H](NC(=O)[C@H](NC(=O)c3ccc(-c4ccc(NC(=O)Cc5ccccc5)cc4)[nH]c3=O)c3ccc(O)cc3)C(=O)N2[C@H]1C(=O)O [Example 13, N-[6-[4-(Phenylacetylamino)phenyl]-1,2-dihydro-2-oxonicotinoyl]amoxicillin]
12 | 1.6 (≈ 2.52 µM) | 1.6 (≈ 2.52 µM) | 100 (≈ 157 µM) | 25 (≈ 39.3 µM) | 3.1 (≈ 4.88 µM) | COC(=O)Nc1ccc(-c2ccc(C(=O)N[C@@H](C(=O)N[C@@H]3C(=O)N4[C@@H]3SC(C)(C)[C@@H]4C(=O)O)c3ccc(O)cc3)c(=O)[nH]2)cc1 [Example 12, N-[6-[4-(Methoxycarbonylamino)phenyl]-1,2-dihydro-2-oxonicotinoyl]amoxicillin]
13 | 12.5 (≈ 20.7 µM) | 3.1 (≈ 5.14 µM) | 100 (≈ 166 µM) | 25 (≈ 41.4 µM) | 6.3 (≈ 10.4 µM) | CC(=O)Nc1ccc(-c2ccc(C(=O)N[C@@H](C(=O)N[C@@H]3C(=O)N4[C@@H]3SC(C)(C)[C@@H]4C(=O)O)c3ccccc3)c(=O)[nH]2)cc1 [Example 1, N-[6-[4-(Acetylamino)phenyl]-1,2-dihydro-2-oxonicotinoyl]-ampicillin]
14 | 12.5 (≈ 18.1 µM) | 1.6 (≈ 2.32 µM) | > 50 | 1.6 (≈ 2.32 µM) | 6.3 (≈ 9.12 µM) | CC1(C)S[C@@H]2[C@H](NC(=O)[C@H](NC(=O)c3ccc(-c4ccc(NC(=O)CSCC#N)cc4)[nH]c3=O)c3ccc(O)cc3)C(=O)N2[C@H]1C(=O)O [Example 9]
15 | 6.3 (≈ 9.05 µM) | 1.6 (≈ 2.3 µM) | 50 (≈ 71.9 µM) | 12.5 (≈ 18 µM) | 0.8 (≈ 1.15 µM) | CC1(C)S[C@@H]2[C@H](NC(=O)[C@H](NC(=O)c3ccc(-c4ccc(NC(=O)OCc5ccccc5)cc4)[nH]c3=O)c3ccccc3)C(=O)N2[C@H]1C(=O)O [Example 11, N-[6-[4-(Benzyloxycarbonylamino)phenyl]-1,2-dihydro-2-oxonicotinoyl]ampicillin]
